From paper PMC6848745 (Psychopharmacology, 2018)
“And” between values parts separate entries of the source, which are not always exact repeats. Equal values may be shown once.

Experiments:
5-HT2A [1] = biological target: T1, 5-HT2A (Homo sapiens, UniProt P28223); assay: Gq-mediated calcium flux in HEK293 cells, h5-HT2A; format: cell-based
α2B = α2B (Homo sapiens, UniProt P18089); assay: NIMH PDSP competitive binding, α2B; conditions: [3H]rauwolscine; cloned receptor; mean ± SEM
5-HT5A = 5-HT5A (Homo sapiens, UniProt P47898); assay: NIMH PDSP competitive binding, 5-HT5A; conditions: [3H]LSD; cloned receptor; mean ± SEM
H4 = H4 (Homo sapiens, UniProt Q9H3N8); assay: NIMH PDSP competitive binding, H4
Chain of H4 (Q9H3N8 whole entry): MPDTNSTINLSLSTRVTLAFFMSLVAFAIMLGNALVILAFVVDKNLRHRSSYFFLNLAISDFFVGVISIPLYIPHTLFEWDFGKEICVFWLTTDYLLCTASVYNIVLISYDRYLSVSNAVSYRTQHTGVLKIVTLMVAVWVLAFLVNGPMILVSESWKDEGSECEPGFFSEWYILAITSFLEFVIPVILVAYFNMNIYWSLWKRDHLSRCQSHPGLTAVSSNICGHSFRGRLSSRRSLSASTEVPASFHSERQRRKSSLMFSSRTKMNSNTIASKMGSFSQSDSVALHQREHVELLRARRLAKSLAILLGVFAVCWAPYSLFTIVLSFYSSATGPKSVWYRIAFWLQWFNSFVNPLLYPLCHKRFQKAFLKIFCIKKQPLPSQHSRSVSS

H2 = H2 (Homo sapiens, UniProt P25021); assay: NIMH PDSP competitive binding, H2; conditions: [3H]tiotidine; cloned receptor; mean ± SEM
5-HT1A = 5-HT1A (Homo sapiens, UniProt P08908); assay: NIMH PDSP competitive binding, 5-HT1A; conditions: [3H]8-OH-DPAT; cloned receptor; mean ± SEM
α2A = α2A (Homo sapiens, UniProt P08913); assay: NIMH PDSP competitive binding, α2A; conditions: [3H]rauwolscine; cloned receptor; mean ± SEM
D1 = D1 (Homo sapiens, UniProt P21728); assay: NIMH PDSP competitive binding, D1; conditions: [3H]SCH23390; cloned receptor; mean ± SEM
β1 = β1 (Homo sapiens, UniProt P08588); assay: NIMH PDSP competitive binding, β1; conditions: primary binding assay
Chain of β1 (P08588 whole entry): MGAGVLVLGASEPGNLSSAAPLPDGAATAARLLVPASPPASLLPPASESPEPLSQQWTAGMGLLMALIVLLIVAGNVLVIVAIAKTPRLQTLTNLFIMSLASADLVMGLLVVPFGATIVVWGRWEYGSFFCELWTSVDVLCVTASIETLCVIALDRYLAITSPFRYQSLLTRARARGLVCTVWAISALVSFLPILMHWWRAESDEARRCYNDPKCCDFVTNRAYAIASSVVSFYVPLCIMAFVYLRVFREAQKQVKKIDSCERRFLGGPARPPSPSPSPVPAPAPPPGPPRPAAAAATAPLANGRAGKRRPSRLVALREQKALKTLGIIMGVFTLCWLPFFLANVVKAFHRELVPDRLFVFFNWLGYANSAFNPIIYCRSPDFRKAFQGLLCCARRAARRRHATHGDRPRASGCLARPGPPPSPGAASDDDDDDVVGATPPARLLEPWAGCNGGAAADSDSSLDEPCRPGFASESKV

D3 = D3 (Homo sapiens, UniProt P35462); assay: NIMH PDSP competitive binding, D3; conditions: [3H]N-methylspiperone; cloned receptor; mean ± SEM
Chain of D3 (P35462 whole entry): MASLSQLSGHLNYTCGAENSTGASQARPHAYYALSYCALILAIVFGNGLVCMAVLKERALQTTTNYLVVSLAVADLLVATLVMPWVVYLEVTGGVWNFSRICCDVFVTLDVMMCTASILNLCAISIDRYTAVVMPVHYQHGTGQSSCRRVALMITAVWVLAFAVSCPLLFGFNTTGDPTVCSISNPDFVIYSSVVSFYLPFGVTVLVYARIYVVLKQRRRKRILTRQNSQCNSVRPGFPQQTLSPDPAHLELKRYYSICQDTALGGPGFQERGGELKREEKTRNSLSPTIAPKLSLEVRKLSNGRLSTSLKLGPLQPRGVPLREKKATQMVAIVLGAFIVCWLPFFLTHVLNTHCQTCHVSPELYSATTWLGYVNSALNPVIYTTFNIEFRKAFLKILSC

α1A = α1A (Homo sapiens, UniProt P35348); assay: NIMH PDSP competitive binding, α1A; conditions: [3H]prazosin; cloned receptor
H3 = H3 (Cavia porcellus, UniProt Q9JI35); assay: NIMH PDSP competitive binding, H3; conditions: primary binding assay
Chain of H3 (Q9JI35 whole entry): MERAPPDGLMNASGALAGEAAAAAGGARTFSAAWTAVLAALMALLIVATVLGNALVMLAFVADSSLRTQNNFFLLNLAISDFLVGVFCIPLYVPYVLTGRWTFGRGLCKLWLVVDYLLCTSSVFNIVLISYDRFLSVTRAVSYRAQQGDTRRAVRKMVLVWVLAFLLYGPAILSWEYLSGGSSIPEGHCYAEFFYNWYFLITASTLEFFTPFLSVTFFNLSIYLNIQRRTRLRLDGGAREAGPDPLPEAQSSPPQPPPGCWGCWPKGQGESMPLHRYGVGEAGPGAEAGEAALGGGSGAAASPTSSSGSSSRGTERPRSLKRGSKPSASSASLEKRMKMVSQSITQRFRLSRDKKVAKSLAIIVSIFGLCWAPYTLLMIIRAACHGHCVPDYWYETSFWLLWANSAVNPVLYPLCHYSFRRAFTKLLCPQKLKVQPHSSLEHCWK

α1D = α1D (Homo sapiens, UniProt P25100); assay: NIMH PDSP competitive binding, α1D; conditions: [3H]prazosin; cloned receptor
C57BL/6J mice = assay: Head twitch response; format: in vivo, mouse; conditions: for HTR Counts (Mean ± SEM): 30 min
5-HT6 = 5-HT6 (Homo sapiens, UniProt P50406); assay: NIMH PDSP competitive binding, 5-HT6; conditions: [3H]LSD; cloned receptor; mean ± SEM
α2C = α2C (Homo sapiens, UniProt P18825); assay: NIMH PDSP competitive binding, α2C; conditions: [3H]rauwolscine; cloned receptor; mean ± SEM
D5 = D5 (Homo sapiens, UniProt P21918); assay: NIMH PDSP competitive binding, D5; conditions: [3H]SCH23390; cloned receptor; mean ± SEM
5-HT1D = 5-HT1D (Homo sapiens, UniProt P28221); assay: NIMH PDSP competitive binding, 5-HT1D; conditions: [3H]GR125743; cloned receptor; mean ± SEM
Chain of 5-HT1D (P28221 whole entry): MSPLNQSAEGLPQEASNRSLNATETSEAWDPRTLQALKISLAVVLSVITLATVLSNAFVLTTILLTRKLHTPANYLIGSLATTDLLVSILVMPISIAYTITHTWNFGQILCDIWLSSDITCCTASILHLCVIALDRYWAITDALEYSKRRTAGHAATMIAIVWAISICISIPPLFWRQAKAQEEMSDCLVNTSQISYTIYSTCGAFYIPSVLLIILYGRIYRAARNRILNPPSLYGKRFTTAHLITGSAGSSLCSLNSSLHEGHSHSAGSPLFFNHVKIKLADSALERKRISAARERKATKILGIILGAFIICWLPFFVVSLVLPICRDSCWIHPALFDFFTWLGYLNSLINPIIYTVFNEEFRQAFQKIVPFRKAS

D4 = D4 (Homo sapiens, UniProt P21917); assay: NIMH PDSP competitive binding, D4; conditions: [3H]N-methylspiperone; cloned receptor; mean ± SEM
5-HT2A [2] = biological target: T1, 5-HT2A; assay: NIMH PDSP competitive binding, 5-HT2A; conditions: [3H]ketanserin; cloned receptor; mean ± SEM
α1B = α1B (Homo sapiens, UniProt P35368); assay: NIMH PDSP competitive binding, α1B; conditions: [3H]prazosin; cloned receptor; mean ± SEM
Chain of α1B (P35368 whole entry): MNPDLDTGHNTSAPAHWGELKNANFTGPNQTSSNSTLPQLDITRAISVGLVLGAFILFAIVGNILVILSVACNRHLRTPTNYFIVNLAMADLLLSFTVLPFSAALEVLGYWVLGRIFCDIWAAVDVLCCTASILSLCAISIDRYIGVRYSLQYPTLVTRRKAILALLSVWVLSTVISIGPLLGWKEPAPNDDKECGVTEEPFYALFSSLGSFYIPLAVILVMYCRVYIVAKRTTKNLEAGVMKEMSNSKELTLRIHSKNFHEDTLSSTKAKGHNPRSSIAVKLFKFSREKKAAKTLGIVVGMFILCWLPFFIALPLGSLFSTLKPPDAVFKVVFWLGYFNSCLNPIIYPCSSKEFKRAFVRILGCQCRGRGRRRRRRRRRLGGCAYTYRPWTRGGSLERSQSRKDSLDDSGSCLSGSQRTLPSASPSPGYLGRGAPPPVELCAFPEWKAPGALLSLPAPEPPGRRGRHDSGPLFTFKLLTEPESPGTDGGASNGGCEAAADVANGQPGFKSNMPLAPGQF

H1 = H1 (Homo sapiens, UniProt P35367); assay: NIMH PDSP competitive binding, H1
Chain of H1 (P35367 whole entry): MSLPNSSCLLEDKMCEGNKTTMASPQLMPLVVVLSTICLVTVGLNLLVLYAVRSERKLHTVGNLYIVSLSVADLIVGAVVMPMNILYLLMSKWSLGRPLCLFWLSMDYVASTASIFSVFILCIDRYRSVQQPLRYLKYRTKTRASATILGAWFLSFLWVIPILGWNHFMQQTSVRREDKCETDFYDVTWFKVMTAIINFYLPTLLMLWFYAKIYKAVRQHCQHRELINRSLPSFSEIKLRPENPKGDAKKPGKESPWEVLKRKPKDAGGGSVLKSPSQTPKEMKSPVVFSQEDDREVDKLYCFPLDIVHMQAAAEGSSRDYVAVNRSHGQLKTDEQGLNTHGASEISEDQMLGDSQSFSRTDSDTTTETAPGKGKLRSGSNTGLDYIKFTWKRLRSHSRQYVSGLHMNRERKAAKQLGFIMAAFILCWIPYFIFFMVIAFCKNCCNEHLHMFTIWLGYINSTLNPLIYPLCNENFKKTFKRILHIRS

5-HT2C = 5-HT2C (Homo sapiens, UniProt P28335); assay: NIMH PDSP competitive binding, 5-HT2C
5-HT2B [3] = biological target: T2, 5-HT2B (Homo sapiens, UniProt P41595); assay: NIMH PDSP competitive binding, 5-HT2B; conditions: [3H]LSD; cloned receptor; mean ± SEM
T2 sequence (P41595 whole entry): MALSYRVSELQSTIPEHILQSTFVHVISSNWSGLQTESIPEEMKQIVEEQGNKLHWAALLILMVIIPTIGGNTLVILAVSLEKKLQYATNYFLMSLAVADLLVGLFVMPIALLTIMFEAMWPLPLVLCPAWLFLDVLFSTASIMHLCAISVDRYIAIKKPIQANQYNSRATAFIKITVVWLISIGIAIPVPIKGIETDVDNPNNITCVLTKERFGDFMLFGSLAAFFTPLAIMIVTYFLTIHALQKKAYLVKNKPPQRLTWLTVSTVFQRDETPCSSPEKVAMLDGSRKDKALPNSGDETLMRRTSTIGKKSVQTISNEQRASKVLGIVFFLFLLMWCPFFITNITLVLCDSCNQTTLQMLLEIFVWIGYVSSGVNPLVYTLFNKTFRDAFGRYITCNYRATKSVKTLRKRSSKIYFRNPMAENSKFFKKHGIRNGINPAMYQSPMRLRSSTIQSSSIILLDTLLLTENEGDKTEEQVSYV

5-HT1B = 5-HT1B (Homo sapiens, UniProt P28222); assay: NIMH PDSP competitive binding, 5-HT1B; conditions: [3H]GR125743; cloned receptor; mean ± SEM
D2 = D2 (Homo sapiens, UniProt P14416); assay: NIMH PDSP competitive binding, D2; conditions: [3H]N-methylspiperone; cloned receptor; mean ± SEM
β2 = β2 (Homo sapiens, UniProt P07550); assay: NIMH PDSP competitive binding, β2
Chain of β2 (P07550 whole entry): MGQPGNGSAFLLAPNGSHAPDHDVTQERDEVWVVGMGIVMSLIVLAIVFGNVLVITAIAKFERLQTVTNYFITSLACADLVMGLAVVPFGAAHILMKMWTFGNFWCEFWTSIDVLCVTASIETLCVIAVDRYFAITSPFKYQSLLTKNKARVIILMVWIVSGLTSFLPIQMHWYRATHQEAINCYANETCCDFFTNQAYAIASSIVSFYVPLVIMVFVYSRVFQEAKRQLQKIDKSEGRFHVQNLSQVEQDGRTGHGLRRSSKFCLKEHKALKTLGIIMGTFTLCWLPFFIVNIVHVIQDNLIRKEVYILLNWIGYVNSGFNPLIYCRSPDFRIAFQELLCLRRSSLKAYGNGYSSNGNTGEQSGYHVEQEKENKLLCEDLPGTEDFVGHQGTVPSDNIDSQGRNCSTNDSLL

β3 = β3 (Homo sapiens, UniProt P13945); assay: NIMH PDSP competitive binding, β3; conditions: [3H]CGP12177; cloned receptor; mean ± SEM
5-HT7 = 5-HT7 (Homo sapiens, UniProt P34969); assay: NIMH PDSP competitive binding, 5-HT7; conditions: [3H]LSD; cloned receptor; mean ± SEM
Chain of 5-HT7 (P34969 whole entry): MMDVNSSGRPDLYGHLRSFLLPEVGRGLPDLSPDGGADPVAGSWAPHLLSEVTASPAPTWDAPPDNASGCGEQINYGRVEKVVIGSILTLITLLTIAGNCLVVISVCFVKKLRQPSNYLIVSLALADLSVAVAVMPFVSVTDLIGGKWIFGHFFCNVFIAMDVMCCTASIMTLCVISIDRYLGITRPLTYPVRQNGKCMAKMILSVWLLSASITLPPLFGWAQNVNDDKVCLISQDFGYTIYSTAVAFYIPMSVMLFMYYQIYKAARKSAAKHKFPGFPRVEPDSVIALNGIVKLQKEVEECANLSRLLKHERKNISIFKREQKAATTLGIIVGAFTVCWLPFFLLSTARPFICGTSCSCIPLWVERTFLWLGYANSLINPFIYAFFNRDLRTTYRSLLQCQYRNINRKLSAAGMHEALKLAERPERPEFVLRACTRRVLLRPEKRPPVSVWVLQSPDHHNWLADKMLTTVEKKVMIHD

human 5-HT2C INI = biological target: T3, human 5-HT2C INI (Homo sapiens, UniProt P28335); assay: Gq-mediated calcium flux in HEK293 cells, h5-HT2C; format: cell-based
T3 sequence (P28335 33-458): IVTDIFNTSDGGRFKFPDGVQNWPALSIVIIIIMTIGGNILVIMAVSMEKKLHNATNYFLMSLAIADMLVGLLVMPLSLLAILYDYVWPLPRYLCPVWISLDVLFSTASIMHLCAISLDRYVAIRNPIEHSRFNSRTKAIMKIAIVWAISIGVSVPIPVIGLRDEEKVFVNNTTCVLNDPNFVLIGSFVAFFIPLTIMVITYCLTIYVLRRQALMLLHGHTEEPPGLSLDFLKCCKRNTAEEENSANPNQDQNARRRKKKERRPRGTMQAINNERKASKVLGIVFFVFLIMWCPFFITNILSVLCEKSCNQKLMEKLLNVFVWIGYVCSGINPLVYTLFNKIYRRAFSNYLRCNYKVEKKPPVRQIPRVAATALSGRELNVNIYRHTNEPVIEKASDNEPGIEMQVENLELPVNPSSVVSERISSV

5-HT2B [4] = biological target: T2, 5-HT2B; assay: Gq-mediated calcium flux in HEK293 cells, h5-HT2B; format: cell-based
[5] = Ca2+ mobilization, HEK293 cells
[6] = percent 5-HT maximum response, mean ± SEM

T1 sequence (P28223 whole entry): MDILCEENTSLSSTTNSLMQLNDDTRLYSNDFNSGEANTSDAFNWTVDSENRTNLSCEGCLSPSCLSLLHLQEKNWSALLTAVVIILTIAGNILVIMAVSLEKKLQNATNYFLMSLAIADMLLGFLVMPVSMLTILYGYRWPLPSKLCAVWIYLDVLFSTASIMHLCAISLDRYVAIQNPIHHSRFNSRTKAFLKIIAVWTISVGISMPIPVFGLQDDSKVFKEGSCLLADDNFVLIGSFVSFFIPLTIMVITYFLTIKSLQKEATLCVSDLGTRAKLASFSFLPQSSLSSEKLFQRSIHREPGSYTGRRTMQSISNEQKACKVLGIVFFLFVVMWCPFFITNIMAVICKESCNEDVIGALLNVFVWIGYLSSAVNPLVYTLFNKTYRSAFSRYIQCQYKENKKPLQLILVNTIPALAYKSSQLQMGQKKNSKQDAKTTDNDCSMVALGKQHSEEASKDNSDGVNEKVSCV

CCN(C(=O)[C@@H]1C=C2c3cccc4[nH]cc(c34)C[C@H]2N(C)C1)C1CC1 [ECPLA, N-ethyl-N-cyclopropyl lysergamide]
EC50 (5-HT2A [1]; [5]): 14.6 nM | pEC50 ± SEM (5-HT2A [1]; [5]): 7.84 ± 0.04 | Emax % 5-HT (5-HT2A [1]; [6]): 91 % 5-HT and 91 ± 1 % 5-HT | Ki (α2B): 62.3 ± 15.1 nM | Ki (5-HT5A): 8.6 ± 4.2 nM | Ki (H4; [3H]histamine, cloned receptor, IC50 > 10 μM in the primary binding assay): > 10000 nM | displacement at 10 μM (H4; primary binding assay, 10 μM): < 50% | Ki (H2): 890 ± 137 nM | Ki (5-HT1A): 3.2 ± 0.5 nM | Ki (α2A): 144 ± 64 nM | Ki (D1): 502 ± 122 nM | displacement at 10 μM (β1): < 50% | Ki (D3): 104 ± 29 nM | Ki (α1A): > 10000 nM | displacement at 10 μM (H3): < 50% | Ki (α1D): > 10000 nM | HTR Counts (Mean ± SEM) (C57BL/6J mice; 0.1 mg/kg IP): 17.7 ± 2.6 | HTR Counts (Mean ± SEM) (C57BL/6J mice; 0.3 mg/kg IP): 34.6 ± 5.1 | HTR Counts (Mean ± SEM) (C57BL/6J mice; 1 mg/kg IP): 28.2 ± 2.6 | ED50, nmol/kg (95% CI) (C57BL/6J mice; IP, entire 30-min test session): 317.2 (213.2–471.9) nmol/kg | ED50, μg/kg (95% CI) (C57BL/6J mice; IP, entire 30-min test session): 130.2 (87.5–193.7) μg/kg | dose of peak HTR response (C57BL/6J mice; biphasic inverted-U-shaped dose-response, IP): 0.3 mg/kg | Ki (5-HT6): 21.7 ± 4.4 nM | Ki (α2C): 438 ± 118 nM | Ki (D5): 1500 ± 386 nM | Ki (5-HT1D): 12.6 ± 1.9 nM | Ki (D4): 92.3 ± 11.9 nM | Ki (5-HT2A [2]): 16.5 ± 6 nM | Ki (α1B): 1950 ± 152 nM | Ki (H1; [3H]pyrilamine, cloned receptor, IC50 > 10 μM in the primary binding assay): > 10000 nM | displacement at 10 μM (H1; primary binding assay, 10 μM): < 50% | fold lower affinity than LSD for the 5-HT2C receptor (5-HT2C; ECPLA Ki 85.7 nM vs LSD Ki 30 nM): ~3 fold | Ki (5-HT2C; [3H]mesulergine, cloned receptor, mean ± SEM): 85.7 ± 31.2 nM | Ki (5-HT2B [3]): 5.3 ± 1.3 nM | Ki (5-HT1B): 42.3 ± 8.7 nM | Ki (D2): 150 ± 32 nM | Ki (β2; [3H]CGP12177, cloned receptor, IC50 > 10 μM in the primary binding assay): > 10000 nM | displacement at 10 μM (β2; primary binding assay, 10 μM): < 50% | Ki (β3): 2420 ± 639 nM | Ki (5-HT7): 27.3 ± 11.5 nM | EC50 (human 5-HT2C INI; [5]): 183 nM | pEC50 ± SEM (human 5-HT2C INI; [5]): 6.74 ± 0.09 | Emax % 5-HT (human 5-HT2C INI; [6]): 73 % 5-HT and 73 ± 3 % 5-HT | EC50 (5-HT2B [4]; [5]): 36.7 nM | pEC50 ± SEM (5-HT2B [4]; [5]): 7.44 ± 0.06 | Emax % 5-HT (5-HT2B [4]; [6]): 73 % 5-HT and 73 ± 2 % 5-HT
